Target: T1, MtCHIT5b (Medicago truncatula, UniProt A0A072UR65)
T1 construct: gene CHIT5B; without predicted signal peptide, N-terminal 6xHis tag (pET28b or pET32a for variants), E. coli BL21(DE3), Ni-NTA
Assay: reverse-phase HPLC (C18) hydrolysis assay
Type: biochemical
Conditions: 25 mM sodium acetate pH 5.0, 37 C
Excerpt: reverse-phase HPLC (C18) hydrolysis assay on MtCHIT5b

T1 sequence (A0A072UR65 27-379): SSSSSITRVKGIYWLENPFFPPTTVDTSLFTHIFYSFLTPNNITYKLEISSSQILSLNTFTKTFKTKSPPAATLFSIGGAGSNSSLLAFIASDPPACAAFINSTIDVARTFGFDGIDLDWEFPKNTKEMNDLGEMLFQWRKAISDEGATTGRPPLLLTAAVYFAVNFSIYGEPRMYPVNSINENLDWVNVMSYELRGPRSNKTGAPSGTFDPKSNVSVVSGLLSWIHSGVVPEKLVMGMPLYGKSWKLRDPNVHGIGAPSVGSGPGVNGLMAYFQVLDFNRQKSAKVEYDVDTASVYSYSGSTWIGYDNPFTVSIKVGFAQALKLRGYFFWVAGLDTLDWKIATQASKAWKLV

| SMILES | Km |
| --- | --- |
| CCCCCC/C=C\CCCCC/C=C/C(=O)N[C@H]1[C@H](O[C@H]2[C@H](O)[C@@H](NC(C)=O)[C@H](O[C@H]3[C@H](O)[C@@H](NC(C)=O)[C@H](O[C@H]4[C@H](O)[C@@H](NC(C)=O)C(O)O[C@@H]4COS(=O)(=O)O)O[C@@H]3CO)O[C@@H]2CO)O[C@H](COC(C)=O)[C@@H](O)[C@@H]1O (some centres unmarked) [NodSm-IV(C16 : 2, Ac, S)] | 96.9 ± 18.8 µM |
| CCCCCC/C=C\CCCCC/C=C/C(=O)N[C@H]1[C@H](O[C@H]2[C@H](O)[C@@H](NC(C)=O)[C@H](O[C@H]3[C@H](O)[C@@H](NC(C)=O)[C@H](O[C@H]4[C@H](O)[C@@H](NC(C)=O)C(O)O[C@@H]4COS(=O)(=O)O)O[C@@H]3CO)O[C@@H]2CO)O[C@H](CO)[C@@H](O)[C@@H]1O (some centres unmarked) [NodSm-IV(C16 : 2, S)] | 58.6 ± 11.4 µM |

From publication PMC4967823, “A single amino acid substitution in a chitinase of the legume Medicago truncatula is sufficient to gain Nod-factor hydrolase activity” (Open Biology, 2016)
